Reference: patent publication US11382925B2, “Agent for treating retinal disease” (CARNA HEALTH SUPPORT LTD., priority 2017, dated 2022)

Tests used:
[1] = authorized minimum dosage amount; compared with canagliflozin; cited from earlier work
SGLT2 = target: T1, SGLT2 (Homo sapiens, UniProt P31639); details: cited from earlier work
T1 sequence (P31639 1-672): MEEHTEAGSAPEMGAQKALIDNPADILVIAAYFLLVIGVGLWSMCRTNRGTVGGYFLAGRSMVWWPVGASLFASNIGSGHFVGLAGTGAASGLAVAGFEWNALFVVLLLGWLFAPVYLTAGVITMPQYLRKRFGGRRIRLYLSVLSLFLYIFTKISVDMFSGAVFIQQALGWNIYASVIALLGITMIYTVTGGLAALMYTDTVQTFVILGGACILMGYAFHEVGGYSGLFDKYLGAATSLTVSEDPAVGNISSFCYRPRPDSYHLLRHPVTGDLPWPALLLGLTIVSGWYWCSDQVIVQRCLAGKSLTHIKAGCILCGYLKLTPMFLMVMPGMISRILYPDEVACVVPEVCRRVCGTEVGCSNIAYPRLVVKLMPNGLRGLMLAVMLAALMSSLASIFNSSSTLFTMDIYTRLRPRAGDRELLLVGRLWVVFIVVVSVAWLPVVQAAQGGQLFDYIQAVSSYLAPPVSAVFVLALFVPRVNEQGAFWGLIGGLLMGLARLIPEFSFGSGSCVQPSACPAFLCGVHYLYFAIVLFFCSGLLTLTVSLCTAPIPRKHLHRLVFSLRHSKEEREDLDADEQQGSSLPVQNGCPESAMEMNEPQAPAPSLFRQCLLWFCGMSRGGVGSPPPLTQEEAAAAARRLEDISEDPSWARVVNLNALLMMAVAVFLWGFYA

[2] = system: retina of an age-related maculopathy mouse model; assay: Hematoxylin-Eosin staining of retina, thickness of outer granular layer, in age-related maculopathy mouse model; format: in vivo, BALB/c mice; details: vs non-administered AMD mouse
Procedure: FIG. 4 is a graph showing the thickness of outer granular layer (including visual cells) of the retina of an age-related maculopathy mouse model in numeral terms. […] “***” represents P<0.005 vs control mouse, “#” and “##” each represents P<0.05 vs Ipragliflozin non-administered AMD mouse, and P<0.01 vs Ipragliflozin non-administered AMD mouse, respectively.
(§1) To BALB/c mice, light irradiation (8000 lux, 10 hours) was performed, and then the mice were bred for one week. The existing SGLT2 inhibitor agent ipragliflozin was orally administered in an amount of 0.03 mg/kg/day and 0.1 mg/kg/day for four days including the day of light irradiation. The effects on body weight and blood sugar were confirmed. These models are widely used as age-related maculopathy models.

[3] = Preliminary test: body weight, blood sugar and urinal sugar in light-irradiated age-related maculopathy mouse model; format: in vivo, BALB/c mice; details: AMD mouse; for change in body weight as compared to when not administering ipragliflozin: light irradiation 8000 lux 10 hours, bred one week
Procedure: as §1
FIGS. 1 and 2 show the results of body weight and blood sugar levels when administering the existing SGLT2 inhibitor agent ipragliflozin at 0.03 mg/kg/day and 0.1 mg/kg/day.

[4] = 0.03 mg/kg/day orally for four days
[5] = 0.1 mg/kg/day orally for four days

Compound	maximum blood concentration (Cmax) in the minimum dosage amount, relative to that of canagliflozin [1]	IC50 level showing the inhibition activity, compared with canagliflozin (SGLT2)	further results
OC[C@H]1O[C@@H](c2ccc(Cl)c(Cc3ccc(O[C@H]4CCOC4)cc3)c2)[C@H](O)[C@@H](O)[C@@H]1O [empagliflozin]	approximately 1/10	similar	–
O=C(O)[C@@H]1CCCN1.OC[C@H]1O[C@@H](c2ccc(F)c(Cc3cc4ccccc4s3)c2)[C@H](O)[C@@H](O)[C@@H]1O [ipragliflozin L-proline]	similar	similar	–
OC[C@H]1O[C@@H](c2ccc(F)c(Cc3cc4ccccc4s3)c2)[C@H](O)[C@@H](O)[C@@H]1O [ipragliflozin]	–	–	thinning of membrane shown in retina of AMD mouse (thickness of outer granular layer) ([2]; 0.03 mg/kg/day orally): significantly ameliorated; thinning of membrane shown in retina of AMD mouse (thickness of outer granular layer) ([2]; 0.1 mg/kg/day orally): significantly ameliorated; change in urinal sugar as compared to when not administering ipragliflozin ([3]; 0.03 mg/kg/day and 0.1 mg/kg/day orally for four days): no change was observed; change in blood sugar as compared to when not administering ipragliflozin [3, 4]: no change was observed; change in body weight as compared to when not administering ipragliflozin [3, 4]: no change was observed; change in blood sugar as compared to when not administering ipragliflozin [3, 5]: no change was observed; change in body weight as compared to when not administering ipragliflozin [3, 5]: no change was observed
CCOc1ccc(Cc2cc([C@@H]3S[C@H](CO)[C@@H](O)[C@H](O)[C@H]3O)c(OC)cc2C)cc1 [luseogliflozin hydrate]	approximately 1/10	similar	–
CCc1ccc(Cc2ccc3c(c2)[C@]2(OC3)O[C@H](CO)[C@@H](O)[C@H](O)[C@H]2O)cc1 [tofogliflozin hydrates, tofogliflozin hydrate]	approximately 1/10	similar	–
